Measurements published in ChEMBL document CHEMBL1201862, “PubChem BioAssay data set” (2004).
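Each compound was tested at five concentrations against cells in 96-well plates for 48 hours. GI50 marks 50% less growth.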 Calls of active or inactive are those of the source. Rule as the data show it: active = GI50 up to about 1.1 µM and inactive = higher.

Tests used:
Assay in all cases: NCI tumour cell line growth inhibition, 48 h
SK-OV-3 = system: SK-OV-3
UO-31 = system: UO-31
HOP-62 = system: HOP-62
MDA-MB-435 = system: MDA-MB-435
NCI-H23 = system: NCI-H23
Malme-3M = system: Malme-3M
T47D = system: T47D
MOLT-4 = system: MOLT-4
DU-145 = system: DU-145
A498 = system: A498
Hs-578T = system: Hs-578T
SK-MEL-2 = system: SK-MEL-2
TK-10 = system: TK-10
SF-268 = system: SF-268
SR = system: SR
UACC-257 = system: UACC-257
SF-539 = system: SF-539
HL-60 = system: HL-60
OVCAR-4 = system: OVCAR-4

Row | Structure (SMILES) | GI50 (SK-OV-3) | GI50 (UO-31) | GI50 (HOP-62) | GI50 (MDA-MB-435) | GI50 (NCI-H23) | GI50 (Malme-3M) | GI50 (T47D) | GI50 (MOLT-4) | GI50 (DU-145) | GI50 (A498) | GI50 (Hs-578T) | GI50 (SK-MEL-2) | GI50 (TK-10) | GI50 (SF-268) | GI50 (SR) | GI50 (UACC-257) | GI50 (SF-539) | GI50 (HL-60) | GI50 (OVCAR-4)
1 | COCn1c(C)c(C)c2c(=O)oc(=O)[nH]c21 | > 100 µM (inactive) | > 100 µM (inactive) | > 100 µM (inactive) | > 100 µM (inactive) | > 100 µM (inactive) | > 100 µM (inactive) | > 100 µM (inactive) | > 100 µM (inactive) | > 100 µM (inactive) | > 100 µM (inactive) | > 100 µM (inactive) | > 100 µM (inactive) | > 100 µM (inactive) | > 100 µM (inactive) | > 100 µM (inactive) | > 100 µM (inactive) | > 100 µM (inactive) | 54.8 µM (inactive) | > 100 µM (inactive)
2 | COC1CC(OC2CCC3(C)C(=CCC4C3C(OC(C)=O)C(OC(=O)CC(C)C)C3(C)C(C(C)=O)CCC43O)C2)OC(C)C1OC1CC(OC)C(OC2CC(OC)C(OC3OC(C)C(O)C(OC)C3O)C(C)O2)C(C)O1 (configuration not stated) | 51.1 µM (inactive) | 26.1 µM (inactive) | > 100 µM (inactive) | 25.1 µM (inactive) | 34 µM (inactive) | 43 µM (inactive) | 38.2 µM (inactive) | 23.8 µM (inactive) | 40.6 µM (inactive) | > 100 µM (inactive) | 49.8 µM (inactive) | 24.7 µM (inactive) | 25.9 µM (inactive) | 54.1 µM (inactive) | 31.5 µM (inactive) | 28.8 µM (inactive) | 21.9 µM (inactive) | 14.9 µM (inactive) | 39.5 µM (inactive)
3 | CC(=O)NC1C(OCc2ccccc2)OC(CO)C(O)C1OCC(=O)N[C@@H](C)C(=O)N[C@H](CCC(=O)NCCCNc1ccc([N+](=O)[O-])c2[nH]c3ccccc3c(=O)c12)C(N)=O (some centres not stated) | > 100 µM (inactive) | > 100 µM (inactive) | 65 µM (inactive) | > 100 µM (inactive) | > 100 µM (inactive) | 27.5 µM (inactive) | > 100 µM (inactive) |  | 60.8 µM (inactive) | > 100 µM (inactive) | 26.2 µM (inactive) | > 100 µM (inactive) | 41.7 µM (inactive) |  | > 100 µM (inactive) | 54 µM (inactive) | 53.2 µM (inactive) | > 100 µM (inactive) | 34 µM (inactive)
4 | NC1C2C(CC(=O)O)OCC=C3CN4CCC1(C(=O)C(=O)O)C4CC32 (configuration not stated) | > 100 µM (inactive) | > 100 µM (inactive) | > 100 µM (inactive) | > 100 µM (inactive) | > 100 µM (inactive) | > 100 µM (inactive) | > 100 µM (inactive) | > 100 µM (inactive) | > 100 µM (inactive) | > 100 µM (inactive) | > 100 µM (inactive) | > 100 µM (inactive) | > 100 µM (inactive) | > 100 µM (inactive) | > 100 µM (inactive) | > 100 µM (inactive) | > 100 µM (inactive) | > 100 µM (inactive) | > 100 µM (inactive)
5 | O=C(O)c1ccccc1/C=C1\Cc2ccc3c(c2C1=O)CCCC3 | 94.8 µM (inactive) | 63.5 µM (inactive) | 49.7 µM (inactive) | 44.7 µM (inactive) | 26.1 µM (inactive) | 41.8 µM (inactive) | 19.6 µM (inactive) | 25.2 µM (inactive) | 41.4 µM (inactive) | 30.8 µM (inactive) | 34.1 µM (inactive) | 31.3 µM (inactive) | 75.2 µM (inactive) | 64 µM (inactive) | 26.8 µM (inactive) | 25.1 µM (inactive) | 26.4 µM (inactive) | 26.4 µM (inactive) | 41.6 µM (inactive)
6 | CN(CCC(=O)O)S(=O)(=O)c1ccccc1 | > 100 µM (inactive) | > 100 µM (inactive) | > 100 µM (inactive) | > 100 µM (inactive) | > 100 µM (inactive) | > 100 µM (inactive) | > 100 µM (inactive) | > 100 µM (inactive) | > 100 µM (inactive) | > 100 µM (inactive) | > 100 µM (inactive) | > 100 µM (inactive) | > 100 µM (inactive) | > 100 µM (inactive) | > 100 µM (inactive) | > 100 µM (inactive) | > 100 µM (inactive) | > 100 µM (inactive) | > 100 µM (inactive)
7 | COc1ccc(/C=C2\C=Cc3ccccc32)cc1OC | 76.2 µM (inactive) |  | > 100 µM (inactive) | > 100 µM (inactive) | 24 µM (inactive) | > 100 µM (inactive) | 47.3 µM (inactive) | 38.6 µM (inactive) | > 100 µM (inactive) | 39.4 µM (inactive) | 29.9 µM (inactive) | 72.1 µM (inactive) | > 100 µM (inactive) | > 100 µM (inactive) | 50.9 µM (inactive) | > 100 µM (inactive) | > 100 µM (inactive) | 10.9 µM (inactive) | 29.9 µM (inactive)
8 | NC(=S)N/N=C\CC(O)(C(F)(F)F)C(F)(F)F | > 10 µM (inactive) | > 10 µM (inactive) | > 10 µM (inactive) | > 10 µM (inactive) | > 10 µM (inactive) | > 10 µM (inactive) | > 10 µM (inactive) | > 10 µM (inactive) | > 10 µM (inactive) | > 10 µM (inactive) | > 10 µM (inactive) | > 10 µM (inactive) | > 10 µM (inactive) | > 10 µM (inactive) | > 10 µM (inactive) | > 10 µM (inactive) | > 10 µM (inactive) | > 10 µM (inactive) | > 10 µM (inactive)
9 | CCC(C)C1NC(=O)C(NC(=O)C(CC(C)C)N(C)C(=O)[C@@H]2C=CCN2C(=O)[C@H](C)O)C(C)OC(=O)[C@H](Cc2ccc(OC)cc2)N(C)C(=O)[C@@H]2CCCN2C(=O)[C@H](CC(C)C)NC(=O)C(C)C(=O)[C@H](C(C)C)OC(=O)CC1O (some centres not stated) | 0.00239 µM (active) | 0.0138 µM (active) | 0.00303 µM (active) | 0.00277 µM (active) | 0.00184 µM (active) | 0.00219 µM (active) | 0.0013 µM (active) | 0.00147 µM (active) | 0.00501 µM (active) | 0.00671 µM (active) | < 0.01 µM (active) | < 0.01 µM (active) | 0.0175 µM (active) | 0.00243 µM (active) | 0.000216 µM (active) | 0.00311 µM (active) | 0.00139 µM (active) | 0.00299 µM (active) | 0.00234 µM (active)
10 | OC1CC(O)c2c(Cl)sc(Cl)c21 (configuration not stated) | 27.4 µM (inactive) | 28.2 µM (inactive) | 21.2 µM (inactive) | 32 µM (inactive) | 21.2 µM (inactive) | 36.3 µM (inactive) | 26.9 µM (inactive) | 51.5 µM (inactive) | 43.4 µM (inactive) | > 100 µM (inactive) | 36 µM (inactive) | 19.5 µM (inactive) | 36 µM (inactive) | > 100 µM (inactive) | > 100 µM (inactive) | 24.8 µM (inactive) | > 100 µM (inactive) | 30.5 µM (inactive) | 8.79 µM (inactive)
11 | CCN1C[C@]2(COC)[C@H](O)C[C@H](OC)[C@]34C1[C@H]([C@H](OC)[C@H]23)[C@]1(OC(C)=O)[C@H]2[C@@H](OC(=O)c3ccccc3)[C@](O)(C[C@H]24)[C@@H](OC)[C@@H]1O | > 100 µM (inactive) | > 100 µM (inactive) |  | > 100 µM (inactive) | > 100 µM (inactive) | > 100 µM (inactive) | > 100 µM (inactive) | > 10 µM (inactive) | > 100 µM (inactive) | > 100 µM (inactive) | > 100 µM (inactive) | > 100 µM (inactive) | > 100 µM (inactive) | > 100 µM (inactive) | > 100 µM (inactive) | > 100 µM (inactive) | > 100 µM (inactive) | > 100 µM (inactive) | > 100 µM (inactive)
12 | NC(=S)N/N=C1/CCCC2CCCC[C@@H]12 (some centres not stated) | > 100 µM (inactive) | > 100 µM (inactive) | > 100 µM (inactive) | > 100 µM (inactive) | > 100 µM (inactive) | > 100 µM (inactive) | 37.4 µM (inactive) | > 100 µM (inactive) | > 100 µM (inactive) | > 100 µM (inactive) | 76.4 µM (inactive) | > 100 µM (inactive) | > 100 µM (inactive) | > 100 µM (inactive) | > 100 µM (inactive) | > 100 µM (inactive) | > 100 µM (inactive) | > 100 µM (inactive) | > 100 µM (inactive)
13 | COc1ccc2oc(=O)c(-c3nc4ccccc4s3)cc2c1 | 13.6 µM (inactive) | 13.9 µM (inactive) | 14.2 µM (inactive) | 12 µM (inactive) | 27.5 µM (inactive) | 8.61 µM (inactive) | 20.6 µM (inactive) | > 77.6 µM (inactive) | 21.8 µM (inactive) | 20.8 µM (inactive) | 23.2 µM (inactive) | > 100 µM (inactive) | 32.2 µM (inactive) | 34 µM (inactive) | 22 µM (inactive) | > 85.1 µM (inactive) | 3.92 µM (inactive) | > 100 µM (inactive) | 20.8 µM (inactive)
14 | C=C[C@]1(C)C[C@@H](OC(=O)CO)[C@@]2(C)[C@H](C)CC[C@]3(CCC(=O)[C@H]32)[C@@H](C)[C@@H]1O | > 100 µM (inactive) | > 63.5 µM (inactive) | 71.8 µM (inactive) | > 68.1 µM (inactive) | > 70.1 µM (inactive) | 83.4 µM (inactive) | 99.5 µM (inactive) | 37.5 µM (inactive) | > 100 µM (inactive) | > 54.6 µM (inactive) | > 53.1 µM (inactive) | > 59.3 µM (inactive) | > 59.3 µM (inactive) | > 83.2 µM (inactive) | > 43.4 µM (inactive) | > 76.6 µM (inactive) | > 100 µM (inactive) | 49.8 µM (inactive) | > 100 µM (inactive)
